Here are results for six compounds from patent US20260375265A1, “COMPOSITION FOR ALLEVIATING SKIN PIGMENTATION” (LG H & H CO., LTD., priority 2023, published 2026).

Data set [1] deals with RAB11FIP2. Briefly: qPCR of RAB11FIP2 mRNA expression in UVB-irradiated mouse melanoma cells. The format is cell-based. As to conditions: B16F10, UVB 30 mJ/cm^2 (312 nm), substance one day, appropriate concentration; FIG. 1; UVB alone decreased. Here is the method: (§1) Screening was performed for substances that influence the expression of genes associated with scattered dark spots on skin among various substances having skin-improving efficacy. Changes in the expression of genes associated with scattered dark spots on skin were examined in cells where melanin synthesis was increased by UVB exposure, and substances that restored the expression to the level before UVB exposure were selected.
(§2) Mouse melanoma cells (B16F10; CRL-6475) were purchased from ATCC for use. The purchased cells were cultured in a 37 °C/5% CO2 incubator using a medium prepared by supplementing Dulbecco's Modified Eagle Medium (DMEM-GIBCO) with 10% fetal bovine serum (FBS) and 1% penicillin/streptomycin.
To analyze the efficacy on changes in the mRNA expression of genes associated with scattered dark spots on skin, mouse melanoma cells were seeded at 2*10^5 cells/well in 6-well plates and cultured in a 37 °C/5% CO2 incubator for one day. After replacing the medium with PBS, 30 mJ/cm^2 of UVB (312 nm) was irradiated using an RMX 3W (Vilber Lourmat) instrument. Substances were added to the medium at appropriate concentrations and cultured for one day under the same conditions. […] The expression level of each gene was analyzed by performing qPCR using synthesized cDNA and taqman probe (assay ID: AKAP1-Mm00501539_m1, RAB11FIP2-Mm01261268_m1, PPARGC1B-Mm00504730_m1).

The test system of data set [2] is mouse melanoma cells. Briefly: Inhibition of melanin production increased by UVB (scattered dark spots). The data set is classed as cell-based. As to conditions: light or radiation study, 48 h, 25 ppm DIPA alone, UVB 30 mJ/cm^2, two days, FIG. 4, read-out: reduction of melanin production (Y). Here is the method: In detail, mouse melanoma cells were seeded at 2*10^5 cells/well in 6-well plates and cultured in a 37 °C/5% CO2 incubator for one day, followed by irradiation with 30 mJ/cm^2 of UVB (312 nm). Each of media comprising appropriate concentrations and combinations of substances was added and cultured again in a 37 °C/5% CO2 incubator for two days to determine whether or not the substances inhibited the melanin production increased by UVB. Cells attached to the plates were collected in PBS and centrifuged to obtain cell pellets. The cell pellets were visually inspected and photographed. The cell pellets were dissolved in a 1 N NaOH (sodium hydroxide) solution comprising 10% dimethyl sulfoxide (DMSO) at 80 °C for 10 minutes, and placed in a 96-well plate, and absorbance at 405 nm was measured using an Epoch (Biotek) instrument. Melanin was quantified using the measured absorbance and normalized to the sample protein concentration to determine melanin concentration. The inhibition rate of melanin production of the sample was calculated as a ratio of the melanin concentration of the sample treatment group with respect to the melanin concentration increased by UVB.
E=(X+Y)−(X*Y/100) Colby equation

Data set [3] deals with ASCL2. Briefly: qPCR of ASCL2 mRNA expression in a-MSH-treated B16F10 cells. The format is cell-based, mouse. As to conditions: B16F10, 10 nM a-MSH plus substance, one day, appropriate concentration; FIG. 3. Here is the method:
(§3) Screening was performed for substances that influence the expression of genes associated with spot pigmentation among various substances having the skin-improving efficacy. Changes in the expression of genes associated with spot pigmentation were examined in cells where melanin synthesis was increased by a-MSH, and substances that restored the expression to the level before a-MSH treatment were selected.
as §2
To analyze the efficacy on changes in the mRNA expression of genes associated with skin spot pigmentation, mouse melanoma cells were seeded at […] cells/well in 6-well plates and cultured in a 37 °C/5% CO2 incubator for one day. After replacing the medium with a fresh medium, 10 nM α-MSH was treated, and substances were added to the medium at appropriate concentrations and cultured for one day under the same conditions. […] The expression level of each gene was analyzed by performing qPCR using synthesized cDNA and taqman probe (assay ID: ASCL2-Mm01268891_m1, PPARGC1B-Mm00504730_m1, TP63-Hs00978349_m1).
A general note: Real-time PCR tracks product formation cycle by cycle.

Data set [4] has as its system KITLG. Briefly: qPCR of KITLG mRNA expression in UVB-irradiated human keratinocytes (HaCaT). The format is cell-based. As to conditions: UVB 30 mJ/cm^2 (312 nm), substance one day, appropriate concentration, FIG. 2, UVB alone increased. Here is the method:
Screening was performed for substances that influence the expression of genes associated with dark skin tone among various substances having skin-improving efficacy. Changes in the expression of genes associated with dark skin tone were examined in cells where melanin synthesis was increased by a-MSH, and substances that restored the expression to the level before a-MSH treatment were selected.
To analyze the efficacy on changes in the mRNA expression of genes associated with dark skin tone, RT-qPCR experiment was conducted. Cells were cultured in a 37 °C/5% CO2 incubator for one day. To assess the change of KITLG expression by UVB, the medium of human keratinocytes (HaCaT) was replaced with PBS, and 30 mJ/cm^2 of UVB (312 nm) was irradiated using an RMX 3W (Vilber Lourmat) instrument. The medium was replaced with a fresh medium and cultured for one day. To assess the change in KITLG expression by treatment with substances, the cells were treated with appropriate concentrations of substances along with a fresh medium and cultured for one day. […] The expression level of each gene was analyzed by performing qPCR using synthesized cDNA and taqman probe (assay ID: OCA2-Mm00498969_m1, BNC2-Mm00556284_m1, RAB32-Mm00458960_m1, KITLG-Hs00241497_m1).

For data set [5] the following is noted: general description; very acidic; concentration not given; cited from earlier work.
In data set [6] the test system is PPARGC1B. Briefly: qPCR of PPARGC1B mRNA expression in UVB-irradiated mouse melanoma cells. The format is cell-based. As to conditions: B16F10, UVB 30 mJ/cm^2 (312 nm), substance one day, appropriate concentration; FIG. 1; UVB alone decreased. As for the experimental part:
as §1, §2
To analyze the efficacy on changes in the mRNA expression of genes associated with scattered dark spots on skin, mouse melanoma cells were seeded at 2*10^5 cells/well in 6-well plates and cultured in a 37 °C/5% CO2 incubator for one day. After replacing the medium with PBS, 30 mJ/cm^2 of UVB (312 nm) was irradiated using an RMX 3W (Vilber Lourmat) instrument. Substances were added to the medium at appropriate concentrations and cultured for one day under the same conditions. Thereafter, total RNA was obtained using AccuPrep Universal RNA Extraction Kit (Bioneer, K-3140), and cDNA was synthesized using AccuPower® RocketScript Cycle (Bioneer, K-2202). The expression level of each gene was analyzed by performing qPCR using synthesized cDNA and taqman probe (assay ID: AKAP1-Mm00501539_m1, RAB11FIP2-Mm01261268_m1, PPARGC1B-Mm00504730_m1).

For data set [7] the following is noted: general description; cited from earlier work.
Data set [8] deals with scattered dark spots on skin. Briefly: Human application trial: customized prescription for high-risk group of scattered dark spots. The format is in vivo. As to conditions: twice daily, four weeks. As for the experimental part:
Accordingly, it was aimed to provide specific substances capable of increasing the improvement efficiency of scattered dark spots according to the risk level of developing scattered dark spots on skin, dark skin tone, and/or spot pigmentation.
After receiving approval from the Institutional Review Board (IRB, Korea) (LG-SKEV-2022-09-A), the study was conducted in accordance with the standard operating guidelines and clinical trial standards of the Institutional Review Board of LG Household & Health Care Co., Ltd. Ten healthy adult subjects aged 20-50 with no apparent skin abnormalities were selected. […]
PIE's Janus3 was used to photograph the front and side of the face under normal, polarized, and UV light. […] The pigmentation improvement rate (%) was calculated by determining the percentage reduction in the pigmentation values after four weeks of use compared to the polarized pigmentation values before use.

Data set [9] relates to dark skin tone. Briefly: Human application trial: customized prescription for high-risk group of dark skin tone. The format is in vivo. As to conditions: twice daily, four weeks. Here is the method:
Accordingly, it was aimed to provide substances capable of increasing the improvement efficiency of dark skin tone according to the risk level of developing dark skin tone.
After receiving approval from the Institutional Review Board (IRB, Korea) (LG-SKEV-2022-09-A), the study was conducted in accordance with the standard operating guidelines and clinical trial standards of the Institutional Review Board of LG Household & Health Care Co., Ltd. Nine healthy adult subjects aged 20-50 with no apparent skin abnormalities were selected.
Based on the genetic polymorphic markers associated with skin tone brightness in Table 2, subjects were classified into low-risk and high-risk groups according to their risk level of developing dark skin tone as follows. • Risk scores (the sum of each genotype multiplied by its respective effect size (β)) for the five genetic markers were less than −0.193→low-risk group (n=4). • Risk scores (the sum of each genotype multiplied by its respective effect size (β)) for the five genetic markers were −0.193 or higher→high-risk group (n=5).
The same as in Example 4-2 […]
PIE's Janus3 was used to photograph the front and side of the face under normal, polarized, and UV light. […] The pigmentation improvement was calculated by determining the increase in the skin tone brightness values after four weeks of use compared to the skin tone brightness values before use.

Data set [10] has as its system PPARGC1B. Briefly: qPCR of PPARGC1B mRNA expression in a-MSH-treated B16F10 cells. The format is cell-based, mouse. As to conditions: B16F10, 10 nM a-MSH plus substance, one day, appropriate concentration; FIG. 3. As for the experimental part: as §3, §2
To analyze the efficacy on changes in the mRNA expression of genes associated with skin spot pigmentation, mouse melanoma cells were seeded at […] cells/well in 6-well plates and cultured in a 37 °C/5% CO2 incubator for one day. After replacing the medium with a fresh medium, 10 nM α-MSH was treated, and substances were added to the medium at appropriate concentrations and cultured for one day under the same conditions. Thereafter, total RNA was obtained using AccuPrep Universal RNA Extraction Kit (Bioneer, K-3140), and cDNA was synthesized using AccuPower® RocketScript™ Cycle (Bioneer, K-2202). The expression level of each gene was analyzed by performing qPCR using synthesized cDNA and taqman probe (assay ID: ASCL2-Mm01268891_m1, PPARGC1B-Mm00504730_m1, TP63-Hs00978349_m1).

Where [11] appears, read: 8% vitamin C essence, high-risk group (n=5).

With `CC(C)OC(=O)CCCCC(=O)OC(C)C` [diisopropyl adipate (DIPA), diisopropyl adipate], the “change of RAB11FIP2 expression” value in data set [1] was “increasing”. Also, the inhibition at 25 ppm in [2] was approximately 1.5%.

tocopherol: in data set [3], the “change of ASCL2 expression” value was “decreasing”.

Turning to `O=c1cc(-c2ccccc2)oc2cc(O)cc(O)c12` [chrysin, 5,7-dihydroxyflavone], the “change of KITLG expression” value in data set [4] is “decreasing”.

`O=C(O)c1ccccc1O` [salicylic acid, reference compound]: the pH in data set [5] was 2.4. Besides, the “change of PPARGC1B expression” value in data set [6] is listed as “increased”.

On to `NC(=O)c1cccnc1` [niacinamide, reference compound], for which the “change of PPARGC1B expression” value in [6] is listed as “increased”. The solubility in water result in data set [7] is on record as “dissolves well in water”.

In the case of `O=C1O[C@H]([C@@H](O)CO)C(O)=C1O` [ascorbic acid], the “pigmentation improvement in the high-risk group” value in [8] (setting [11]) and in data set [9] (setting [11]) was “did not improve pigmentation” each time. Moreover, the “pigmentation improvement in the low-risk group” value in data set [8] (low-risk group (n=5), FIGS. 10, 11) is “did not improve pigmentation”; in data set [9] (low-risk group (n=4), FIGS. 12, 13), “slightly improved pigmentation”. In addition, in [10], the “change of PPARGC1B expression” value is given as “increased”.
